This note sets out measurements from PMC12914960, “Repurposing a detrimental antibody epitope as targeted therapeutics for sepsis and rheumatoid arthritis” (Military Medical Research, 2026).

The subject of the assay is CAIA in BALB/c mice. Put plainly: Arthritis severity score, collagen antibody-induced arthritis (CAIA). Type of assay: in vivo, mouse. Here is the method: The CAIA model was established in BALB/c mice (8–10 weeks old) as described previously. On Day 0, the mice received an i.p. injection of 2 mg of anti-collagen II mAb cocktail (α-CII, Chondrex, Inc., Redmond, WA, USA). On Day 3, the mice received an i.p. injection of 30 µg of LPS [Escherichia coli (E. coli) O111:B4; Sigma-Aldrich, St. Louis, MO, USA] to activate inflammation and synchronize arthritis onset. The mice were randomized to the control vehicle (n = 5 or n = 7–10) or experimental groups (n = 5 or n = 7–10). Therapeutic agents [P2-1 peptide (1.0 or 2.0 mg/kg) or pCTS-L-neutralizing mAb2 (1.0, 2.0, or 4.0 mg/kg)] were administered i.p. daily, either prophylactically from–Day 2 or therapeutically from Day 6 post-α-CII challenge. Arthritis severity was scored daily via a clinical scoring system [0–4 per paw: 0 = normal; 1 = mild redness and swelling in a single joint type (ankle, wrist, or individual digit); 2 = moderate redness and swelling affecting two joint types; 3 = severe redness and swelling across all 3 joint types; 4 = maximal redness and swelling of the entire paw that obscured the joint definition].
On Day 0, the mice recei ved an i.p. injection of 2 mg of anti-collagen II m Ab cocktail (α-CII, Chondrex, Inc., Redmond, WA). […]

The structures appear in SMILES notation. Where a SMILES comes first, the peptide text is derived from it.

Regarding `CCCC[C@H](NC(=O)[C@H](Cc1c[nH]cn1)NC(=O)[C@@H](NC(=O)[C@H](CCCCN)NC(=O)[C@@H](N)[C@@H](C)O)C(C)C)C(=O)N[C@@H](CCCCN)C(=O)N[C@@H](CO)C(=O)N[C@@H](Cc1ccccc1)C(=O)N[C@@H](CC(C)C)C(=O)N[C@@H](C)C(=O)N[C@@H](Cc1ccccc1)C(=O)N[C@@H](CCC(N)=O)C(=O)N[C@H](C(=O)N[C@@H](CCCCN)C(=O)N[C@H](C(=O)O)[C@@H](C)O)[C@@H](C)O` [P2-1] (HELM PEPTIDE1{T.K.V.H.[Nle].K.S.F.L.A.F.Q.T.K.T}$$$$V2.0; N-terminus and C-terminus assumed), the “arthritis severity, in words” value was “dose-dependently and significantly attenuated CAIA-induced arthritis severity” (P2-1 1.0 or 2.0 mg/kg i.p. daily from Day 6 (therapeutic)); “significantly reduced arthritis severity” (P2-1 prophylactic, from Day -2, significant by Day 7).
